Structures can show the parent of a compound that is named as a salt.
What follows are compounds tested against HPK1 (Homo sapiens (Human), UniProt Q92918) (assay: HPK1 biochemical enzyme assay (microfluidic mobility shift assay)). Conditions: 1.5 nM HPK1, ATP 1 mM final, 30 min preincubation, 60 min at RT, Caliper EZ Reader; read-out: HPK1 1000UMATP caliper IC50.
Outline: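 Mobility shift readout of HPK1 activity after a 60 min RT reaction with 1 mM ATP, 1 μM substrate and 5 mM MgCl2. Enzyme/substrate mix was first exposed to compounds for 30 min, using ten-point curves topping at 3 μM final.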

HPK1, sequence (Q92918 whole entry): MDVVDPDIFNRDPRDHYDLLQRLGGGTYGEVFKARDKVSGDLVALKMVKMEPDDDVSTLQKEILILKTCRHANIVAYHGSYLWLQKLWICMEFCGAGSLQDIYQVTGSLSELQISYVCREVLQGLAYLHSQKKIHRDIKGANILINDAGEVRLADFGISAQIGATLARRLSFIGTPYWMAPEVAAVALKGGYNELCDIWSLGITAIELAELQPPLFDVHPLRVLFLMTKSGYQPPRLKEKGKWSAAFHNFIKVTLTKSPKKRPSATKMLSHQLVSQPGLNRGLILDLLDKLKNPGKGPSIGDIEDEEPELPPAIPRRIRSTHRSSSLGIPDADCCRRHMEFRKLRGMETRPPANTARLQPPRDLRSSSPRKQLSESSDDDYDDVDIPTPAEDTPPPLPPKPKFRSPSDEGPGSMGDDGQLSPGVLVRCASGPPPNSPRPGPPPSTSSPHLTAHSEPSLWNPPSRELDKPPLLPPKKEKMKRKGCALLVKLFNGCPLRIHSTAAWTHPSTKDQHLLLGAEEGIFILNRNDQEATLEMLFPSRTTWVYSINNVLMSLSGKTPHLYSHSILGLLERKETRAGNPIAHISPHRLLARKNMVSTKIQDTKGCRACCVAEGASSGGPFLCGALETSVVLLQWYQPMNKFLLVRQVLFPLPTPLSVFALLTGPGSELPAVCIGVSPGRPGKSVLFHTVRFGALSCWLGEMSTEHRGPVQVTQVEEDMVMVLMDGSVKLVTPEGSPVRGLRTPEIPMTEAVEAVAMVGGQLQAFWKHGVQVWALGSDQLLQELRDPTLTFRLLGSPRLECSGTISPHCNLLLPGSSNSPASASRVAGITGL

Row | SMILES | IC50
1 | CN1CCN(c2cccc(Nc3cnc(-c4ccnc5c4ccn5C)c4c3C(=O)NC4)n2)CC1 [I-327, 4-(1-methyl-1H-pyrrolo[2,3-b]pyridin-4-yl)-7-((6-(4-methylpiperazin-1-yl)pyridin-2-yl)amino)-2,3-dihydro-1H-pyrrolo[3,4-c]pyridin-1-one] | < 100 nM
2 | Cn1ccc2c(-c3ccc(Nc4ccc(N5CCCNCC5)cn4)c4c3CNC4=O)ccnc21 [I-79, 7-[[5-(1,4-diazepan-1-yl)-2-pyridyl]amino]-4-(1-methylpyrrolo [2,3-b]pyridin-4-yl)isoindolin-1-one] | < 100 nM
3 | Cn1ccc2c(-c3ncc(Nc4cccc(N5CC[C@H](N6CCCC6)C5)n4)c4c3CNC4=O)ccnc21 [I-443, (S)-7-((6-([1,3-bipynolidin]-1′-yl)pyridin-2-yl)amino)-4-(1-methyl-1H-pyrrolo[2,3-b]pyridin-4-yl)-2,3-dihydro-1H-pyrrolo[3,4-c]pyridin-1-one] | < 100 nM
4 | O=C1NCc2c(-c3cnc4cc(F)ccn34)ccc(Nc3ccc([C@@H]4CCOC4)c(CN4CCCC4)n3)c21 [I-516, (S)-4-(7-fluoroimidazo [1,2-a]pyridin-3-yl)-7-((6-(pyrrolidin-1-ylmethyl)-5-(tetrahydrofuran-3-yl)pyridin-2-yl)amino)isoin-dolin-1-one] | < 100 nM
5 | Cn1ccc2c(-c3ncc(Nc4cncc(N5CC[C@@H]6CNC[C@@H]65)n4)c4c3CNC4=O)ccnc21 (single isomer, unassigned) [I-661] | 100 to 1000 nM
6 | O=C1NCc2c(-c3cnc4n3CCOC4)ccc(Nc3ccc(N4CCC(O)CC4)cn3)c21 [I-143] | < 100 nM
7 | CN(C)C[C@@H]1CN(c2ccc(Nc3ccc(-c4cnc5cc(Cl)ccn45)c4c3C(=O)NC4)nc2)CCO1 [I-593, (R)-4-(7-chloroimidazo [1,2-a]pyridin-3-yl)-7-((5-(2-((dimethylamino)-methyl)mor-pholino)pyridin-2-yl)amino)isoin-dolin-1-one] | < 100 nM
8 | CN1CCN(c2ccc(Nc3ccc(-c4cccc5[nH]ccc45)c4c3C(=O)NC4)nc2)CC1 [I-41, 4-(1H-indol-4-yl)-7-[[5-(4-methylpiperazin-1-yl)-2-pyridyl]amino] isoindolin-1-one] | < 100 nM
9 | Cc1cc2c(-c3ncc(Nc4ccc(N5CCN(C)CC5)cn4)c4c3CNC4=O)ccnc2[nH]1 [I-55, 7-[[5-(4-methylpiperazin-1-yl)-2-pyridyl]amino]-4-(2-methyl-1H-pyrrolo[2,3-b]pyridin-4-yl)-2,3-dihydropyrrolo [3,4-c]pyridin-1-one] | < 100 nM
10 | CN(C)Cc1nc(Nc2ccc(-c3cnc4cc(F)ccn34)c3c2C(=O)NC3)ccc1N1CCO[C@H](C(C)(C)O)C1 [I-774, (S)-7-((6-((dimethylamino)-methyl)-5-(2-(2-hydroxypropan-2-yl)morpho-lino)pyridin-2-yl)amino)-4-(7-fluoroimidazo [1,2-a]pyridin-3-yl)isoindolin-1-one] | < 100 nM
11 | CN1CCN(CC2(O)CCN(c3ccc(Nc4ccc(-c5cnc6ccccn56)c5c4C(=O)NC5)nc3)CC2)CC1 [I-403, 7-((5-(4-hydroxy-4-((4-methylpiperazin-1-yl)methyl)pip-eridin-1-yl)pyridin-2-yl)amino)-4-(imidazo[1,2-a]pyridin-3-yl)isoindolin-1-one] | < 100 nM
12 | C[C@@H]1CC[C@@](C)(O)CN1c1ccc(Nc2ccc(-c3cnn4c3CCCC4)c3c2C(=O)NC3)nc1 [I-598, 7-((5-((2R,5R)-5-hydroxy-2,5-dimethyl-piperidin-1-yl)pyridin-2-yl)amino)-4-(4,5,6,7-tetrahydropyra-zolo[1,5-a]pyridin-3-yl)isoindolin-1-one] | < 100 nM
13 | O=C1NCc2c(-c3cnc4cc(F)ccn34)ccc(Nc3ccc([C@@H]4CCOC4)c(CN4CCC[C@H]4CO)n3)c21 [I-828, 4-(7-fluoroimidazo [1,2-a]pyridin-3-yl)-7-((6-(((S)-2-(hydroxymeth-yl)pyrrolidin-1-yl)methyl)-5-((S)-THF-3-yl)pyridin-2-yl)amino)isoin-dolin-1-one] | < 100 nM
14 | COc1ccc2c(-c3ncc(Nc4ccc(N5CCN(C)CC5)cn4)c4c3CNC4=O)c[nH]c2c1 [I-4, 4-(6-methoxy-1H-indol-3-yl)-7-[[5-(4-methylpiperazin-1-yl)-2-pyridyl]amino]-2,3-dihydropyrrolo [3,4-c]pyridin-1-one] | 100 to 1000 nM
15 | CC(C)n1ccc2c(-c3ccc(Nc4ccc(N5CCN(C)CC5)cn4)c4c3CNC4=O)ccnc21 [I-48, 4-(1-isopropylpyrrolo [2,3-b]pyridin-4-yl)-7-[[5-(4-methylpiperazin-1-yl)-2-pyridyl]amino] isoindolin-1-one] | 100 to 1000 nM
16 | O=C1NCc2c(-c3cnc4cc(F)ccn34)ccc(Nc3cccc(N4CC(O)C4)n3)c21 [I-323, 4-(7-fluoroimidazo [1,2-a]pyridin-3-yl)-7-((6-(3-hydroxyazeti-din-1-yl)pyridin-2-yl)amino)isoin-dolin-1-one] | > 1000 nM
17 | CN1CC(c2ccn3c(-c4ccc(Nc5ccc(N6CCC(O)CC6)cn5)c5c4CNC5=O)cnc3c2)C1 [I-411, 7-((5-(4-hydroxy-piperidin-1-yl)pyridin-2-yl)amino)-4-(7-(1-methylazetidin-3-yl)imidazo[1,2-a]pyridin-3-yl)isoindolin-1-one] | < 100 nM
18 | CN(C)Cc1nc(Nc2ccc(-c3cnc4cc(F)ccn34)c3c2C(=O)NC3)ccc1[C@H]1CCN(C)C(=O)C1 [I-556, (S)-7-((6-((dimethylamino)-methyl)-5-(1-methyl-2-oxopiperidin-4-yl)pyridin-2-yl)amino)-4-(7-fluoroimidazo [1,2-a]pyridin-3-yl)isoindolin-1-one] | < 100 nM
19 | Cn1ccc2c(-c3ccc(Nc4ccc(N5CCC[C@@H](C(C)(C)O)C5)cn4)c4c3CNC4=O)ccnc21 (single isomer, unassigned) [I-281] | < 100 nM
20 | CN1CCN(c2cccc(Nc3cnc(-c4cnc5ccccn45)c4c3C(=O)NC4)n2)CC1 [I-451, 4-imidazo[1,2-a]pyridin-3-yl-7-[[6-(4-methylpiperazin-1-yl)-2-pyridyl]amino]-2,3-dihydropyrrolo [3,4-c]pyridin-1-one Bis formate] | < 100 nM
21 | CN1CCN(CC2(O)CCN(c3ccc(Nc4ccc(-c5cnc6cnccn56)c5c4C(=O)NC5)nc3)CC2)CC1 [I-412, 7-((5-(4-hydroxy-4-((4-methylpiperazin-1-yl)methyl)piper-idin-1-yl)pyridin-2-yl)amino)-4-(imidazo[1,2-a]pyrazin-3-yl)isoindolin-1-one] | < 100 nM
22 | CN1CCN(c2cccc(Nc3ccc(-c4ccnc5c4ccn5C)c4c3C(=O)NC4)n2)CC1 [I-247, 7-[[6-(4-methylpiperazin-1-yl)-2-pyridyl]amino]-4-(1-methylpyrrolo [2,3-b]pyridin-4-yl)isoindolin-1-one] | < 100 nM

Next, values leading:

Row | IC50 | SMILES
23 | < 100 nM | CO[C@]1(CN(C)C)CCCN(c2ccc(Nc3ccc(-c4cnc5cc(F)ccn45)c4c3C(=O)NC4)nc2)C1 [I-612, (S)-7-((5-(3-((dimethylamino)-methyl)-3-methoxy-piperidin-1-yl)pyridin-2-yl)amino)-4-(7-fluoroimidazo [1,2-a]pyridin-3-yl)isoindolin-1-one]
24 | < 100 nM | O=C1NCc2c(-c3cnc4cc(OCCO)ccn34)ccc(Nc3ccc(N4CCOCC4)cn3)c21 [I-201, 4-[7-(2-hydroxyeth-oxy)imidazo[1,2-a]pyridin-3-yl]-7-[(5-morpholino-2-pyridyl)amino] isoindolin-1-one]
25 | < 100 nM | CC(C)(O)[C@H]1CCCN(c2ccc(Nc3ccc(-c4cnc5cc(F)ccn45)c4c3C(=O)NC4)nc2)C1 [I-213, 4-(7-fluoroimidazo [1,2-a]pyridin-3-yl)-7-[[5-[(3S)-3-(1-hydroxy-1-methyl-ethyl)-1-piperidyl]-2-pyridyl]amino] isoindolin-1-one]
26 | < 100 nM | O=C1NCc2c(-c3cnc4cnccn34)ccc(Nc3ccc(N4CCCOCC4)cn3)c21 [I-300, 7-((5-(1,4-oxazepan-4-yl)pyridin-2-yl)amino)-4-(imidazo[1,2-a]pyrazin-3-yl)isoindolin-1-one]
27 | < 100 nM | C[C@@H](c1ccc(Nc2ccc(-c3cnc4cc(F)ccn34)c3c2C(=O)NC3)nc1)N1CCOCC1 (single isomer, unassigned) [I-640]
28 | < 100 nM | CC1(N2CCOCC2)CCN(c2ccc(Nc3ccc(-c4cnc5cc(F)ccn45)c4c3C(=O)NC4)nc2)CC1 [I-429, 4-(7-fluoroimidazo [1,2-a]pyridin-3-yl)-7-((5-(4-methyl-4-morpholinopip-eridin-1-yl)pyridin-2-yl)amino)isoin-dolin-1-one]
29 | < 100 nM | C[C@H](O)[C@@H]1CN(c2ccc(Nc3ccc(-c4cnc5cc(F)ccn45)c4c3C(=O)NC4)nc2)CCO1 (single isomer, unassigned) [I-620]
30 | < 100 nM | O=C1NCc2c(-c3cnc4c(F)cccn34)ccc(Nc3ccc(N4CCOCC4)cn3)c21 [I-156, 4-(8-fluoroimidazo [1,2-a]pyridin-3-yl)-7-[(5-morpholino-2-pyridyl)amino] isoindolin-1-one]
31 | < 100 nM | CN(C)C(C)(C)[C@@]1(O)CCCN(c2ccc(Nc3ccc(-c4cnc5cc(F)ccn45)c4c3C(=O)NC4)nc2)C1 [I-716, (R)-7-((5-(3-(2-(dimethylainino)propan-2-yl)-3-hydroxy-piperidin-1-yl)pyridin-2-yl)amino)-4-(7-fluoroimidazo [1,2-a]pyridin-3-yl)isoindolin-1-one]
32 | < 100 nM | CC(C)NCc1nc(Nc2ccc(-c3cnc4cc(F)ccn34)c3c2C(=O)NC3)ccc1[C@H]1CCOC1 [I-559, (R)-4-(7-fluoroimidazo [1,2-a]pyridin-3-yl)-7-((6-((isopropylamino)-methyl)-5-(tetrahydrofuran-3-yl)pyridin-2-yl)amino)isoin-dolin-1-one]
33 | < 100 nM | CN(C)Cc1nc(Nc2ccc(-c3cnc4cc(F)ccn34)c3c2C(=O)NC3)ccc1OC1CCOCC1 [I-553, 7-[[6-[(dimethylamino)-methyl]-5-tetrahydropy-ran-4-yloxy-2-pyridyl]amino]-4-(7-fluoroimidazo [1,2-a]pyridin-3-yl)isoindolin-1-one]

From US11021481B2, “Substituted isoindolin-1-ones and 2,3-dihydro-1h-pyrrolo[3,4-c]pyridin-1-ones as HPK1 antagonists” (Nimbus Saturn, Inc., priority 2019, dated 2021)
